Data as given in BindingDB's records for doi:10.1021/jm970814z (University of Sydney, 1998).
Values joined by “and” are separate entries in the source; they are usually repeats but may differ in a detail not shown here. Equal entries are not always repeated.

Target: CAD protein (Mesocricetus auratus)
Test: Compound ability to inhibit the catalytic activity of hamster Dihydroorotase (DHOase) expressed in Escherichia coli.

Row | Compound | Ki
1 | O=C1CP(O)(S)=C[C@@H](C(=O)O)N1 (stereo partly drawn) [(2R,4S)-4-Mercapto-4,6-dioxo-4lambda*5*-[1,4]azaphosphinane-2-carboxylic acid] | 2.9 µM and 3.1 µM
2 | O=C1CP(O)(O)=CC(C(=O)O)N1 (configuration not stated) [4-Hydroxy-4,6-dioxo-4lambda*5*-[1,4]azaphosphinane-2-carboxylic acid] | 4 µM
